Data on one compound can be found in US20130131059A1, “METHOD FOR TREATING OPHTHALMIC DISEASES USING KINASE INHIBITOR COMPOUNDS IN PRODRUG FORMS” (INSPIRE PHARMACEUTICALS, INC., priority 2010, published 2013).

Molecules are shown by their SMILES. Read-outs that look alike come from different tables or passages of the source.

The target in data set [1] is T1, ROCK1 (Homo sapiens, UniProt Q13464).
T1 construct: purchased Upstate/Chemicon 14-601
Briefly: Rho kinase inhibition assay (IMAP fluorescence polarization), ROCK1. The note with it: 10 μM ATP, 60 min at room temperature; read-out: ROCK1 IC50. Format: biochemical. The method, then: Following the pre-incubation, 10 μM ATP was added to initiate the reaction. After 60 minutes at room temperature, Molecular Devices IMAP™ binding solution was added to bind phosphorylated substrate. After 30 minutes of incubation in the presence of the IMAP™ beads, the fluorescence polarization was read and the ratio was reported as mP.
A general note: In fluorescence polarisation assays a small probe gives low polarisation when free and higher when bound to something large.

Data set [2] addresses T2, ROCK2 (Homo sapiens, UniProt O75116).
T2 construct: purchased Upstate/Chemicon 14-451
As to the kind of experiment: Rho kinase inhibition assay (IMAP fluorescence polarization), ROCK2. In kind it is biochemical. To be noted: 10 μM ATP, 60 min at room temperature. How it is done: (Molecular Devices product number R7184) was pre-incubated with a test compound for 5 minutes in buffer containing 10 mM Tris-HCl pH 7.2, 10 mM MgCl2, and 0.1% BSA. Following the pre-incubation, 10 μM ATP was added to initiate the reaction. After 60 minutes at room temperature, Molecular Devices IMAP™ binding solution was added to bind phosphorylated substrate. After 30 minutes of incubation in the presence of the IMAP™ beads, the fluorescence polarization was read and the ratio was reported as mP.
See Tian et al., Arch. Ophthalmol. […] Ophthalmol. Vis. […] Ophthalmol. […] Cytoskel. […] Ophthalmol. Vis. […] Ophthalmol. Vis.

A short description of data set [3]: Ocular comfort, composite behaviour score after ocular instillation. The note with it: 4 mM, two drops to right eye, evaluated for 15 minutes; FIGS. 1 and 2. In kind it is in vivo, rabbit. How it is done: The desired compound at a concentration of 4 mM in a formulation of 10 mM phosphate, 1% polysorbate 80, 0.85% NaCl, 0.02% BAC, 0.2% EDTA pH 7.0 was administered as two 30 µl drops to the right eye of each rabbit within a dosing group. The rabbits were evaluated for 15 minutes after ocular instillation and their changes in behavior were recorded. […] The higher the score, the more discomfort an animal senses. A mean ±SE was generated for each group and depicted in FIGS. 1 and 2.

A short description of data set [4]: Ocular surface and aqueous humor bioavailability. In kind it is in vivo, New Zealand White rabbits. The note with it: New Zealand White, rabbit, topical, 30 μl of 1 mM (0.04% w/v) per eye, Compound 14 dosed 1 mM, 1 × 30 uL, 4 eyes. How it is done: Dose Formulation and Administration. Compounds 14 (prodrug) and 49 (base compound) were formulated at 0.04% w/v (the equivalent millimolar concentration is 1 mM) in 10 mM phosphate, 0.8% polysorbate 80, 0.85% NaCl, 0.01% BAC, 0.1% EDTA at pH 7.3. Each compound was administered as a 30 μl drop to both eyes of each animal within a dosing group and the ocular and systemic exposure was examined as described in Example 49.
Study sampling. 40 μL of saline was applied to the eyes at 0.083, 1, 2, and 4 hours after administration of each compound and the lavage fluids were collected as samples. Aqueous humor and ocular surface samples were obtained from 2 animals (4 eyes) per dosing group at 0.083, 1, 2, and 4 hours post dosing, by the methods described in Example 49. Ocular surface relates to the surface of the cornea and conjunctiva. Ocular surface residence time is the average time that a compound resides on the ocular surface.

Data set [5] is described as follows: Ocular surface and aqueous humor bioavailability. The note with it: New Zealand White, rabbit, topical, 30 μl of 1 mM (0.04% w/v) per eye, Compound 14 dosed 1 mM, 1 × 30 uL, 4 eyes, time 0.83 h. In kind it is in vivo, New Zealand White rabbits.
Setting [6] is: aqueous humor, read-out: Aqueous Humor concentration of [14], Mean.
The mark [7] stands for this setting: ocular surface (saline lavage fluid), read-out: Ocular Surface concentration of [14], Mean.

T2 sequence (O75116 whole entry): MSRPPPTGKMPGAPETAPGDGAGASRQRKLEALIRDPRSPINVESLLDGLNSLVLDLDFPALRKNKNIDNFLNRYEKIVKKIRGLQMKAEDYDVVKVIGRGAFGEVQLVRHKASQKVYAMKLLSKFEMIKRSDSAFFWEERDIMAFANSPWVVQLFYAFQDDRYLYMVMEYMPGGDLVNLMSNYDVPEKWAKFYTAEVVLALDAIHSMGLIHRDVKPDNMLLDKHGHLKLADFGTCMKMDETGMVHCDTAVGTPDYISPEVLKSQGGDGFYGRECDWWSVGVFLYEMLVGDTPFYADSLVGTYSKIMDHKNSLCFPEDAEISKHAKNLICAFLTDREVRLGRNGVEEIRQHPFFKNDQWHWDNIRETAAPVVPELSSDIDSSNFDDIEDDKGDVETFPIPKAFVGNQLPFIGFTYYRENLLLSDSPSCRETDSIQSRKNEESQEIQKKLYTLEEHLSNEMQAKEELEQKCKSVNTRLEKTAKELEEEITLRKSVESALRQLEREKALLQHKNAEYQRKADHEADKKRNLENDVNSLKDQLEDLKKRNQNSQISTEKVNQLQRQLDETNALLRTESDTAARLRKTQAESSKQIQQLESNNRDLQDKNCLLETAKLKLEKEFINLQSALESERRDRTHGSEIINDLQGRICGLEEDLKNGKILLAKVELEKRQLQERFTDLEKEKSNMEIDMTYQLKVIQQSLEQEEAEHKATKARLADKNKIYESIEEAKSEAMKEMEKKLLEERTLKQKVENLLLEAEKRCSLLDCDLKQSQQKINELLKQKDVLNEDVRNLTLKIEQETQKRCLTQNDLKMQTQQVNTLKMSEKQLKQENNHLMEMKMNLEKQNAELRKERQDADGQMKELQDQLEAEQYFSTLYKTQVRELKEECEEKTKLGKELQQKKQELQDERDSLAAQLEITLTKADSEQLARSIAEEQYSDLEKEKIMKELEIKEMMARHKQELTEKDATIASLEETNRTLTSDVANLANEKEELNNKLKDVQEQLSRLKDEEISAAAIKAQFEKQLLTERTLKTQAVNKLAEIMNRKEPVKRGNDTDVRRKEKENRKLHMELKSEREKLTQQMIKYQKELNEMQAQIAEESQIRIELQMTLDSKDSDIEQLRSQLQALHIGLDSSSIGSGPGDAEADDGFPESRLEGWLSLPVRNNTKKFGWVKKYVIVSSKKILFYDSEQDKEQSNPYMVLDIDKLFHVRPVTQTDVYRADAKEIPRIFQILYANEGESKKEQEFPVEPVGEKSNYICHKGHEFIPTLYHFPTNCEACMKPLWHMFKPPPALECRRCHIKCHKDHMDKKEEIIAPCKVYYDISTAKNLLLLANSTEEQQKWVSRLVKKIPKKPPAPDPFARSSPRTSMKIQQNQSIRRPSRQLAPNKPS
T1 sequence (Q13464 whole entry): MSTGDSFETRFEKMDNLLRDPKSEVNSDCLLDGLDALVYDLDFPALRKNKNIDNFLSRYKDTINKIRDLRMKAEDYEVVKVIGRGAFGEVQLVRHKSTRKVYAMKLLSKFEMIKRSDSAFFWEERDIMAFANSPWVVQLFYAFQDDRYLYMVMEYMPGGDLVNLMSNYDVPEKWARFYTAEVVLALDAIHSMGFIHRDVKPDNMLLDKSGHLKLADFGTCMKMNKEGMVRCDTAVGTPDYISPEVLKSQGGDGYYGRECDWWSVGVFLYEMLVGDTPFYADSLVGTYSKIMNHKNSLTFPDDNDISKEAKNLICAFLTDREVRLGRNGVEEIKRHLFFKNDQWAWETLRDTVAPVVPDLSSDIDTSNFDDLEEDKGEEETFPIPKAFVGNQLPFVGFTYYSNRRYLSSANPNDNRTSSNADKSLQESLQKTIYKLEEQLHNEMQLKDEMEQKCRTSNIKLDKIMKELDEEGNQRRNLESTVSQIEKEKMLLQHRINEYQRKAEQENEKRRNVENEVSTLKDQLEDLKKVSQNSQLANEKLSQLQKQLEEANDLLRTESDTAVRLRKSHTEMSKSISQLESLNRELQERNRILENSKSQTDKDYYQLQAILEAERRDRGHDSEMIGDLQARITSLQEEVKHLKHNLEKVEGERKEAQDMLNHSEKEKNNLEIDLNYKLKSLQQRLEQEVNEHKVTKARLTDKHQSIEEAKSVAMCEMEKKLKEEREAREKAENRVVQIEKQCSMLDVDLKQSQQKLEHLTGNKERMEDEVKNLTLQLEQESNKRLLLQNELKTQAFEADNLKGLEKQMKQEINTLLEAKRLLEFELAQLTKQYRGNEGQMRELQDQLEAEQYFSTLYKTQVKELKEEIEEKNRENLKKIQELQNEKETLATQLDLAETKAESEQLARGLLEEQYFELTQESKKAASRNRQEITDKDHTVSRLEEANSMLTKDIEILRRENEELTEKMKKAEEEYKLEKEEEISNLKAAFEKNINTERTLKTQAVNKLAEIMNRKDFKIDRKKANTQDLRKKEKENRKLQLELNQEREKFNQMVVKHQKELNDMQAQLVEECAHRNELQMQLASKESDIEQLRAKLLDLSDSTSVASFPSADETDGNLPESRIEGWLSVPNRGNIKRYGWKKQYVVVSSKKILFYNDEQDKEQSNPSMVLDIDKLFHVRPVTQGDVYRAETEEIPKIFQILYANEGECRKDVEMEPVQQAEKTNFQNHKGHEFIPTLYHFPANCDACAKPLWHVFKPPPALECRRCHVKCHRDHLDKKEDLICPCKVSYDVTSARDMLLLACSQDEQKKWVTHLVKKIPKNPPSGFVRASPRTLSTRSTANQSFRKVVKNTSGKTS

As for `Cc1ccc(CN2CC[C@@H](Nc3cccc4cnccc34)C2)cc1OCCOC(=O)c1ccccc1` [Compound 14, 2-(5-(((R)-3-isoquinolin-5-ylamino)pyrrolidin-1-yl)methyl)-2-methylphenoxy)ethyl benzoate], the IC50 is 2460 nM in data set [1] and 717 nM in data set [2]. The “Ocular discomfort (composite score) versus parent compound” value in data set [3] was “reduced level of discomfort compared to the parent compound”. The concentration at 1 h in data set [4] (setting [6]) was determined as 0 µM; in data set [4] (setting [7]), 3.08 µM. Besides, the concentration at 2 h in data set [4] (setting [6]) is 0 nM; in data set [4] (setting [7]), 246 nM. Also, the concentration at 4 h in data set [4] (setting [6]) and in data set [4] (setting [7]) was 0 nM throughout. For the same compound, the concentration at […] in data set [5] (setting [6]) amounted to 0 µM; in data set [5] (setting [7]), 24.3 µM.

As usually defined, the IC50 is the midpoint of a concentration-inhibition curve.
